The values that follow come from article PMC6792352, “Limited Chemical Structural Diversity Found to Modulate Thyroid Hormone Receptor in the Tox21 Chemical Library” (Environmental Health Perspectives, 2019).

The structures appear in SMILES notation. Counter-ions that a name gives are not always drawn. Like-named read-outs stand apart in the source and are kept apart here.

One data set is described as follows: in vitro. Conditions: rat, gh3-tre-luc cells, AC50 (uM) modified / 1000.
The subject of another data set is GH3-TRE-Luc cell line. Conditions: read-out: AC50 (uM) modified / 1000, viability, 1 nM T3 present, 24 h.

Consider `CC(C)N(C(=O)SCC(Cl)=C(Cl)Cl)C(C)C` [Tri-allate], for which the CC50 at 24 h in “in vitro” came out at 55.9 µM. In addition, the CC50 in the data set on GH3-TRE-Luc cell line (Tox21_110001=Tox21_300671) was 53.5 µM.
Regarding `O=C(c1cc(O)c(O)c(O)c1)c1ccc(O)c(O)c1O` [Exifone], in the data set “in vitro”, the CC50 at 24 h worked out at 43.6 µM. Besides, in the data set on GH3-TRE-Luc cell line (Tox21_110001=Tox21_303559), the CC50 was determined as 62.8 µM.
As for `Oc1ccc(C(c2ccc(O)cc2)(C(F)(F)F)C(F)(F)F)cc1` [Bisphenol AF], the CC50 at 24 h in the data set “in vitro” came out at 32.9 µM. Moreover, the CC50 with GH3-TRE-Luc cell line (Tox21_110001=Tox21_303641) came out at 54.4 µM.
For `CC[C@H]1OC(=O)[C@H](C)[C@@H](O[C@H]2C[C@@](C)(OC)[C@@H](O)[C@H](C)O2)[C@H](C)[C@@H](O[C@@H]2O[C@H](C)C[C@H](N(C)C)[C@H]2O)[C@](C)(O)C[C@@H](C)CN(C)[C@H](C)[C@@H](O)[C@]1(C)O` [Azithromycin], the CC50 at 24 h in “in vitro” was 28.3 µM. The CC50 with GH3-TRE-Luc cell line (Tox21_110001=Tox21_111008) is 35.5 µM.
In turn, `Cc1ccc(/N=C/N(C)/C=N/c2ccc(C)cc2C)c(C)c1` [Amitraz] showed a CC50 at 24 h in the data set “in vitro” of 59 µM. The CC50 in the data set on GH3-TRE-Luc cell line (Tox21_110001=Tox21_300930) turned out to be 62.8 µM.
Compound `CC(C)=CC1C(C(=O)OCc2coc(Cc3ccccc3)c2)C1(C)C` (stereo not shown) [Resmethrin] displayed a CC50 at 24 h in the data set “in vitro” of more than 90 µM. The CC50 in the data set with GH3-TRE-Luc cell line (Tox21_110001=Tox21_300920) turned out to be 55.3 µM.
`O=[N+]([O-])c1ccc(Cl)c([N+](=O)[O-])c1` [1-Chloro-2,4-dinitrobenzene] came in with a CC50 at 24 h in the data set “in vitro” of 12.5 µM. Also, the CC50 in the data set on GH3-TRE-Luc cell line (Tox21_110001=Tox21_302802) is 10.1 µM.
`O=C1CN(/N=C/c2ccc([N+](=O)[O-])o2)C(=O)N1` [Nitrofurantoin] had a CC50 at 24 h in the data set “in vitro” of 62.5 µM. In addition, the CC50 in the data set with GH3-TRE-Luc cell line (Tox21_110001=Tox21_300602) turned out to be 70.6 µM.
Turning to `Cc1ccc(C(C)(C)C)c(O)c1` [2-tert-Butyl-5-methylphenol], the CC50 at 24 h in the data set “in vitro” came out at 81 µM. For the same compound, the CC50 in the data set on GH3-TRE-Luc cell line (Tox21_110001=Tox21_300486) was 47.9 µM.
In “in vitro”, `CCCCCCCCCCCCc1ccccc1S(=O)(=O)O` [Sodium dodecylbenzenesulfonate] yielded a CC50 at 24 h of 49.5 µM. In the data set with GH3-TRE-Luc cell line (Tox21_110001=Tox21_300506), the CC50 was 77.4 µM.
As to `O=c1cc(-c2ccc(O)cc2)oc2cc(O)cc(O)c12` [Apigenin], the CC50 at 24 h in “in vitro” is 42.3 µM. For the same compound, the CC50 in the data set on GH3-TRE-Luc cell line (Tox21_110001=Tox21_302884) came to 77.9 µM.
For the compound `C1CN(SSN2CCOCC2)CCO1` [4,4'-Dithiodimorpholine], the CC50 at 24 h in the data set “in vitro” is 69.4 µM. Besides, the CC50 in the data set on GH3-TRE-Luc cell line (Tox21_110001=Tox21_303110) was found to be 49.5 µM.
Regarding `CC1COc2ccccc2N1C(=O)C(Cl)Cl` (stereo not shown) [Benoxacor], the CC50 at 24 h in the data set “in vitro” is 11.9 µM. Besides, in the data set on GH3-TRE-Luc cell line (Tox21_110001=Tox21_303359), the CC50 is 22.1 µM.
The compound `Nc1ccc(N)cc1` [1,4-Benzenediamine] had a CC50 at 24 h in “in vitro” of 68.8 µM. In the data set on GH3-TRE-Luc cell line (Tox21_110001=Tox21_302943), the CC50 came to 68.9 µM.
In the case of `Cc1cc(C2(c3cc(C)c(O)cc3C)OS(=O)(=O)c3ccccc32)c(C)cc1O` [p-Xylenol blue], the CC50 at 24 h in “in vitro” amounted to 56.6 µM. The CC50 with GH3-TRE-Luc cell line (Tox21_110001=Tox21_303062) was determined as 47.5 µM.
Consider `Cc1cc(Cc2cc(C)cc(C(C)(C)C)c2O)c(O)c(C(C)(C)C)c1` [2,2'-Methylenebis(4-methyl-6-tert-butylphenol)], for which the CC50 at 24 h in “in vitro” was 11.5 µM. For the same compound, the CC50 with GH3-TRE-Luc cell line (Tox21_110001=Tox21_302923) is 10.1 µM.
For `CC(=O)Oc1ccccc1C(=O)Nc1ncc([N+](=O)[O-])s1` [Nitazoxanide], the CC50 at 24 h in “in vitro” was 23.7 µM. Moreover, the CC50 with GH3-TRE-Luc cell line (Tox21_110001=Tox21_111018) was 27.7 µM.
As to `C=C1CC[C@H](O)C/C1=C/C=C1\CCC[C@]2(C)[C@@H]([C@H](C)CCCC(C)C)CC[C@@H]12` [Vitamin D3], the CC50 at 24 h in the data set “in vitro” worked out at 44.3 µM. In the data set with GH3-TRE-Luc cell line (Tox21_110001=Tox21_111578), the CC50 was 24.3 µM.
In “in vitro”, `CC1=C(/C=C/C(C)=C/C=C/C(C)=C/C(=O)O)C(C)(C)CCC1` [all trans-Retinoic acid] displayed a CC50 at 24 h of 71.8 µM. Besides, the CC50 with GH3-TRE-Luc cell line (Tox21_110001=Tox21_300305) turned out to be 77.6 µM.
`C=CCOC(Cn1ccnc1)c1ccc(Cl)cc1Cl` (stereo not shown) [Imazalil] returned a CC50 at 24 h in “in vitro” of 53.5 µM. Besides, the CC50 with GH3-TRE-Luc cell line (Tox21_110001=Tox21_300720) is 79.9 µM.
Compound `O=C1c2ccccc2C(=O)N1SC(Cl)(Cl)Cl` [Folpet] displayed a CC50 at 24 h in the data set “in vitro” of 4.47 µM. The CC50 in the data set on GH3-TRE-Luc cell line (Tox21_110001=Tox21_301077) is 2.3 µM.
Consider `CCC(C)(C)c1ccc(O)c(C(C)(C)CC)c1` [2,4-Di-tert-pentylphenol], for which, in the data set “in vitro”, the CC50 at 24 h turned out to be 10.5 µM. Besides, in the data set on GH3-TRE-Luc cell line (Tox21_110001=Tox21_300090), the CC50 is 12.2 µM.
Regarding `Nc1cc([N+](=O)[O-])ccc1O` [2-Amino-4-nitrophenol], the CC50 at 24 h in “in vitro” came out at 62.3 µM. Besides, the CC50 with GH3-TRE-Luc cell line (Tox21_110001=Tox21_302788) amounted to 48.2 µM.
On to `C=C1CC[C@H](O)C/C1=C/C=C1\CCC[C@]2(C)[C@@H]([C@H](C)/C=C/[C@H](C)C(C)C)CC[C@@H]12` [Ergocalciferol], for which the CC50 at 24 h in the data set “in vitro” was 42.5 µM. For the same compound, the CC50 in the data set with GH3-TRE-Luc cell line (Tox21_110001=Tox21_302752) is 77.9 µM.
As for `CC[C@@]1([C@@H]2O[C@@H]([C@H]3O[C@@](O)(CO)[C@H](C)C[C@@H]3C)C[C@@H]2C)CC[C@H]([C@]2(C)CC[C@]3(C[C@H](O)[C@@H](C)[C@@H]([C@@H](C)[C@@H](OC)[C@H](C)C(=O)O)O3)O2)O1` [Monensin sodium], the CC50 at 24 h in the data set “in vitro” is 0.446 µM. The CC50 in the data set with GH3-TRE-Luc cell line (Tox21_110001=Tox21_113191) stood at 0.38 µM.
Compound `CCCCC/C=C\C/C=C\CCCCCCCC(=O)O` [Linoleic acid] gave a CC50 at 24 h in “in vitro” of more than 90 µM. For the same compound, the CC50 in the data set with GH3-TRE-Luc cell line (Tox21_110001=Tox21_303080) was found to be 58.3 µM.
As for `O=C1NCCN1CCN1CCC(c2cn(-c3ccc(F)cc3)c3ccc(Cl)cc23)CC1` [Sertindole], the CC50 at 24 h in “in vitro” came out at 5.55 µM. Moreover, in the data set with GH3-TRE-Luc cell line (Tox21_110001=Tox21_113421), the CC50 was determined as 6.74 µM.
`CN1CCc2cccc3c2[C@H]1Cc1ccc(O)c(O)c1-3` [Apomorphine hydrochloride hydrate]: the CC50 at 24 h in “in vitro” was determined as 48.2 µM. Also, the CC50 in the data set with GH3-TRE-Luc cell line (Tox21_110001=Tox21_303480) was found to be 26.7 µM.
For the compound `Nc1c(/N=N/c2ccc(-c3ccc(/N=N/c4cc(S(=O)(=O)O)c5ccccc5c4N)cc3)cc2)cc(S(=O)(=O)O)c2ccccc12` [C.I. Direct Red 28], the CC50 at 24 h in the data set “in vitro” came out at 27 µM. Further, in the data set on GH3-TRE-Luc cell line (Tox21_110001=Tox21_111605), the CC50 worked out at 16.3 µM.
In “in vitro”, `Oc1c(Cl)c(Cl)c(Cl)c(Cl)c1Cl` [Pentachlorophenol] displayed a CC50 at 24 h of 34.5 µM. For the same compound, the CC50 in the data set on GH3-TRE-Luc cell line (Tox21_110001=Tox21_300023) was 29.7 µM.
Compound `CCCCCCCCn1sccc1=O` [Octhilinone] registered a CC50 at 24 h in the data set “in vitro” of 5.52 µM. Besides, the CC50 in the data set on GH3-TRE-Luc cell line (Tox21_110001=Tox21_300566) came out at 3.8 µM.
In “in vitro”, `CC(C)(c1ccc(OCC2CO2)cc1)c1ccc(OCC2CO2)cc1` (stereo not shown) [Bisphenol A diglycidyl ether] registered a CC50 at 24 h of 66.1 µM. The CC50 with GH3-TRE-Luc cell line (Tox21_110001=Tox21_303315) is 61.9 µM.
Turning to `CCCCCCCCCCCCCCCC[N+](C)(C)CC` [Ethylhexadecyldimethylammonium bromide], the CC50 at 24 h in the data set “in vitro” is 11.9 µM. In the data set on GH3-TRE-Luc cell line (Tox21_110001=Tox21_112326), the CC50 amounted to 6.28 µM.
Compound `CCCCC(CC)COC(=O)c1ccc(O)cc1` (stereo not shown) [2-Ethylhexylparaben] came in with a CC50 at 24 h in the data set “in vitro” of 32.1 µM. In the data set with GH3-TRE-Luc cell line (Tox21_110001=Tox21_302793), the CC50 was determined as 41.7 µM.
Regarding `CCCCCCCC[N+](C)(C)CCCCCCCC` [Dioctyldimethylammonium chloride], in “in vitro”, the CC50 at 24 h was determined as 19.4 µM. For the same compound, the CC50 with GH3-TRE-Luc cell line (Tox21_110001=Tox21_113024) amounted to 20.1 µM.
